From the supplement of paper PMC10331698
± gives the standard deviation of the averaged measurements.

Legend:
Assay in all cases: level (log10 ratio to DMSO vehicle control); higher = higher biomarker level / cell amount than vehicle control
[1] = compound: OCC(F)(F)C(F)(F)C(F)(F)C(F)F [1H,1H,5H-Perfluoropentanol] (in DMSO)
Procedure: (§1)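 BioMAP Diversity Plus panel of 12 human primary cell co-culture systems (3C, 4H, LPS, SAg, BT, BF4T, BE3C, CASM3C, HDF3CGF, KF3CT, MyoF, Mphg). Compounds were added 1 h before stimulation and left for 24 h (MyoF 48 h; BT 72 h for soluble read-outs or 6 d for IgG). Biomarkers were read by ELISA, cytotoxicity by SRB, PBMC viability and proliferation by Alamar Blue. Each well value was divided by the mean of 8 DMSO control wells on the same plate and log10 transformed; duplicate blinded samples were tested at 4 concentrations.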

[2] = compound: O=C(O)C=C(C(F)(F)F)C(F)(F)F [3,3-Bis(trifluoromethyl)-2-propenoic acid] (in DMSO)
Procedure: as §1

[3] = compound: C[C@@H]1C[C@H]2[C@@H]3CCC4=CC(=O)C=C[C@]4(C)[C@@]3(F)[C@@H](O)C[C@]2(C)[C@@]1(O)C(=O)COP(=O)(O)O [Dexamethasone sodium phosphate] (in DMSO)
Procedure: as §1

[4] = compound: O=C(O)C(F)(F)C(F)(F)C(F)(F)OC(F)(F)F [Perfluoro(4-methoxybutanoic) acid] (in DMSO)
Procedure: as §1

[5] = compound: O=C(O)C(F)(OC(F)(F)C(F)(F)C(F)(F)F)C(F)(F)F [Ammonium perfluoro-2-methyl-3-oxahexanoate] (in Water)
Procedure: as §1

[6] = compound: NS(=O)(=O)C(F)(F)C(F)(F)C(F)(F)C(F)(F)C(F)(F)C(F)(F)C(F)(F)C(F)(F)F [Perfluorooctanesulfonamide] (in DMSO)
Procedure: as §1

Row | Test System | level (log10) ([1]; 6700 nM) | level (log10) ([1]; 20000 nM) | level (log10) ([1]; 60000 nM) | level (log10) ([2]; 6700 nM) | level (log10) ([2]; 20000 nM) | level (log10) ([2]; 60000 nM) | level (log10) ([3]; 1500 nM) | level (log10) ([3]; 4400 nM) | level (log10) ([3]; 13000 nM) | level (log10) ([3]; 40000 nM) | level (log10) ([4]; 6700 nM) | level (log10) ([4]; 20000 nM) | level (log10) ([4]; 60000 nM) | level (log10) ([5]; 6700 nM) | level (log10) ([5]; 20000 nM) | level (log10) ([5]; 60000 nM) | level (log10) ([6]; 6700 nM) | level (log10) ([6]; 20000 nM)
1 | MyoF:SRB | -0.0025 ± 0.0078 | -0.004 ± 0.016 | 0.002 ± 0.0071 | 0.0005 ± 0.012 | -0.005 ± 0.0014 | -0.024 ± 0.0071 | -0.01 ± 0.0099 | -0.0105 ± 0.0035 | -0.0135 ± 0.0092 | -0.0105 ± 0.00071 | -0.0075 ± 0.0035 | -0.008 ± 0.0028 | -0.0005 ± 0.00071 | 0.0095 ± 0.0035 | 0.013 ± 0.013 | 0.0085 ± 0.0035 | -0.0135 ± 0.0035 | -0.136 ± 0.0021
2 | MyoF:TIMP-1 | 0.0015 ± 0.026 | 0.004 ± 0.054 | 0.039 ± 0.027 | -0.0545 ± 0.025 | -0.023 ± 0.023 | -0.0085 ± 0.077 | -0.0965 ± 0.047 | -0.0915 ± 0.067 | -0.135 ± 0.11 | -0.12 ± 0.11 | -0.0155 ± 0.057 | -0.0185 ± 0.074 | -0.0135 ± 0.071 | -0.0395 ± 0.0092 | -0.0635 ± 0.015 | -0.068 ± 0.0028 | -0.007 ± 0.027 | -0.098 ± 0.018
3 | MyoF:alpha-SM Actin | -0.04 ± 0.059 | -0.0045 ± 0.018 | 0 ± 0.017 | -0.003 ± 0.054 | -0.01 ± 0.067 | -0.0795 ± 0.044 | 0.073 ± 0.051 | 0.084 ± 0.055 | 0.0695 ± 0.057 | 0.0745 ± 0.063 | 0.025 ± 0.028 | -0.0045 ± 0.028 | -0.002 ± 0.0057 | 0.001 ± 0.011 | 0.0005 ± 0.022 | -0.0035 ± 0.0035 | -0.0355 ± 0.037 | -0.63 ± 0.1
4 | MyoF:bFGF | -0.02 ± 0.016 | 0.0115 ± 0.026 | 0.0135 ± 0.012 | 0.0125 ± 0.0064 | 0.0075 ± 0.019 | 0.0325 ± 0.019 | -0.035 ± 0.042 | -0.0165 ± 0.035 | -0.042 ± 0.031 | -0.028 ± 0.0042 | 0.001 ± 0.0042 | 0.0015 ± 0.012 | 0.015 ± 0.0042 | 0.017 ± 0.0099 | 0.006 ± 0.0014 | 0.0005 ± 0.0092 | 0.0115 ± 0.00071 | -0.0145 ± 0.0021
5 | lMphg:CCL2/MCP-1 | -0.0185 ± 0.00071 | 0.008 ± 0.02 | 0.0075 ± 0.012 | -0.007 ± 0.0028 | -0.016 ± 0.0028 | -0.078 ± 0.061 | -0.0595 ± 0.0078 | -0.103 ± 0.0064 | -0.117 ± 0.021 | -0.126 ± 0.0064 | -0.0195 ± 0.026 | -0.0075 ± 0.029 | 0.0265 ± 0.00071 | 0.0165 ± 0.005 | 0.0125 ± 0.012 | 0.038 ± 0.027 | -0.032 ± 0.016 | -0.0485 ± 0.046
6 | lMphg:CCL3/MIP-1alpha | -0.012 ± 0.024 | -0.011 ± 0.027 | 0.0095 ± 0.0078 | -0.0065 ± 0.071 | -0.0015 ± 0.023 | -0.0075 ± 0.016 | -0.139 ± 0.016 | -0.173 ± 0.043 | -0.254 ± 0.06 | -0.209 ± 0.055 | -0.0355 ± 0.035 | -0.038 ± 0.024 | -0.015 ± 0.021 | -0.0685 ± 0.035 | -0.067 ± 0.0014 | -0.0185 ± 0.054 | -0.003 ± 0.016 | 0.023 ± 0.0099
7 | lMphg:CD40 | 0.0015 ± 0.023 | -0.012 ± 0.016 | 0.007 ± 0.02 | -0.0255 ± 0.00071 | -0.0545 ± 0.0035 | -0.071 ± 0.014 | -0.0185 ± 0.026 | -0.0375 ± 0.0092 | -0.038 ± 0.013 | -0.103 ± 0.04 | -0.014 ± 0.024 | -0.027 ± 0.033 | -0.0375 ± 0.03 | -0.0295 ± 0.0064 | -0.045 ± 0.0099 | -0.049 ± 0.011 | -0.0365 ± 0.016 | -0.0925 ± 0.0092
8 | lMphg:CD62E/E-Selectin | -0.006 ± 0.017 | 0.002 ± 0.014 | 0.02 ± 0.016 | -0.049 ± 0.0085 | -0.068 ± 0.02 | -0.14 ± 0.034 | -0.147 ± 0.0028 | -0.212 ± 0.0042 | -0.239 ± 0.089 | -0.292 ± 0.061 | -0.0175 ± 0.047 | -0.0265 ± 0.057 | -0.0225 ± 0.054 | 0.013 ± 0.0071 | 0.002 ± 0.0071 | 0.0245 ± 0.013 | -0.118 ± 0.041 | -0.125 ± 0.0057
9 | lMphg:CD69 | -0.039 ± 0.031 | 0.0325 ± 0.019 | 0.034 ± 0.028 | -0.069 ± 0.024 | -0.0915 ± 0.0078 | -0.0275 ± 0.067 | 0.039 ± 0.014 | -0.007 ± 0.017 | -0.0155 ± 0.029 | -0.0585 ± 0.022 | -0.0165 ± 0.047 | -0.0145 ± 0.071 | 0.005 ± 0.099 | -0.0435 ± 0.011 | 0 ± 0.013 | -0.0185 ± 0.015 | -0.0435 ± 0.052 | -0.11 ± 0.037
10 | lMphg:CD106/VCAM-1 | -0.0035 ± 0.021 | 0.0165 ± 0.037 | 0.0145 ± 0.018 | -0.0205 ± 0.005 | -0.025 ± 0.0099 | -0.0935 ± 0.0064 | -0.018 ± 0.0071 | -0.039 ± 0.0028 | -0.0615 ± 0.013 | -0.086 ± 0.0042 | 0.0015 ± 0.0035 | -0.0015 ± 0.022 | -0.0085 ± 0.021 | -0.0195 ± 0.0035 | -0.013 ± 0.0028 | -0.0085 ± 0.0035 | 0.006 ± 0.014 | 0.0365 ± 0.0021
11 | lMphg:CXCL8/IL-8 | 0.018 ± 0.017 | -0.0005 ± 0.019 | 0.035 ± 0.0028 | 0.081 ± 0.016 | 0.123 ± 0.014 | 0.201 ± 0.047 | -0.108 ± 0.0064 | -0.138 ± 0.015 | -0.136 ± 0.011 | -0.129 ± 0.034 | 0.001 ± 0.04 | 0.005 ± 0.011 | 0.083 ± 0.037 | 0.137 ± 0.0021 | 0.194 ± 0.0078 | 0.261 ± 0.025 | 0.004 ± 0.0042 | 0.124 ± 0.019
12 | lMphg:IL-1alpha | -0.055 ± 0.017 | -0.0185 ± 0.005 | 0.011 ± 0.044 | -0.073 ± 0.068 | -0.0565 ± 0.052 | -0.043 ± 0.075 | -0.0345 ± 0.005 | -0.0335 ± 0.0092 | -0.102 ± 0.05 | -0.096 ± 0.0099 | -0.051 ± 0.018 | -0.0345 ± 0.029 | 0.027 ± 0.068 | 0.0825 ± 0.059 | 0.079 ± 0.055 | 0.11 ± 0.021 | 0.053 ± 0.05 | 0.228 ± 0.028
13 | lMphg:M-CSF | 0.0115 ± 0.016 | -0.0125 ± 0.0064 | 0.0175 ± 0.021 | -0.033 ± 0.0071 | -0.021 ± 0.021 | -0.0325 ± 0.022 | -0.022 ± 0.034 | -0.031 ± 0.058 | -0.0455 ± 0.028 | -0.0495 ± 0.0021 | -0.0095 ± 0.0078 | -0.019 ± 0.011 | -0.0115 ± 0.0064 | -0.084 ± 0.021 | -0.0725 ± 0.00071 | -0.0815 ± 0.011 | -0.0445 ± 0.0092 | -0.029 ± 0.021
14 | lMphg:SRB | -0.0065 ± 0.005 | -0.0045 ± 0.0064 | 0.006 ± 0.0014 | -0.0145 ± 0.013 | -0.0205 ± 0.0021 | -0.0205 ± 0.028 | -0.0045 ± 0.0092 | -0.0125 ± 0.0078 | -0.006 ± 0.0014 | -0.0265 ± 0.0021 | -0.008 ± 0.0099 | -0.0135 ± 0.0035 | -0.0055 ± 0.016 | -0.043 ± 0.0014 | -0.0435 ± 0.00071 | -0.0395 ± 0.0035 | -0.013 | -0.052 ± 0.0085
15 | lMphg:SRB-Mphg | -0.012 ± 0.023 | -0.0605 ± 0.057 | 0.0145 ± 0.033 | -0.032 | -0.017 ± 0.014 | 0.0035 ± 0.012 | -0.0225 ± 0.022 | -0.0625 ± 0.005 | -0.0715 ± 0.018 | -0.0805 ± 0.057 | -0.013 ± 0.02 | 0.0125 ± 0.012 | 0.0115 ± 0.0021 | -0.0535 ± 0.036 | -0.046 ± 0.041 | -0.054 ± 0.041 | -0.0005 ± 0.0064 | -0.027 ± 0.016
16 | lMphg:sIL-10 | -0.0455 ± 0.069 | -0.012 ± 0.025 | -0.014 ± 0.027 | -0.2 ± 0.0071 | -0.325 ± 0.029 | -0.547 ± 0.028 | -0.286 ± 0.05 | -0.503 ± 0.054 | -0.62 ± 0.056 | -0.646 ± 0.054 | 0 ± 0.03 | -0.017 ± 0.0014 | -0.0345 ± 0.023 | -0.36 ± 0.035 | -0.328 ± 0.018 | -0.467 ± 0.13 | -0.068 ± 0.021 | -0.169 ± 0.025
